Read-outs that look alike come from different tables or passages of the source. Marks after values point to notes of the source that are not given here. Where a SMILES comes first, the peptide text is derived from it.
Legend:
[1] = Hyperlipidaemia induced by polyoxyethylene sorbitan monooleate (polysorbate-80) in rats, serum lipids; format: in vivo, Ratten; conditions: blood serum 24 h after polysorbate-80 300 mg/kg i.p.
Experimental: Die Versuche wurden an 51 Outbred-Ratten-Männchen der Linie Sprague-Dawley mit Körpergewicht von 220 - 240 g durchgeführt.
Die untersuchten Peptide wurden täglich in einer Tagesdosis von 20 und 200 µg/kg in den Magen im Laufe von 5 Tagen bis Hyperlipidämie-Ansatz verabreicht. Als Vergleichspräparat wurde ein Präparat gegen Hyperlipidämie aus der Gruppe von Fibric-Säure-Derivaten oder Fibraten - Bezafibrat (2-(b-parachlorobenzoyl-aminoethyl)phenoxy-2-methylpropinsäure) in der Dosis 50,0 mg/kg verwendet.
Die Hyperlipidämie wurde bei Ratten mittels intraperitonealer Einführung von Polyoxyethylen-sorbitan-monooleat (Polysorbat-80, Mischung von Polyäthylen-glykol-Esteren von Anhydrosorbit Monooleat) in einer Dosis von 300 mg/kg verabreicht. 24 Stunden später wurden die Ratten eingeschläfert. Danach wurden Triglyzeridspiegel, Gesamtcholesterin und Lipoproteid-Cholesterin mit hoher Dichte (HDL) im Blutserum der Tiere gemessen.
Infolge der Untersuchung der spezifischen pharmakologischen Aktivität wurde Folgendes festgestellt. Im Hintergrund der durch Polyoxyethylen-sorbitan-monooleat verursachten Hyperlipidämie üben Peptide eine hypolipidämische Wirkung aus. Das zeigt sich durch Senkung des Triglyzeridspiegels, des Gesamtcholesterinspiegels sowie durch Steigerung des HDL-Cholesterins im Blut (Tabelle 1) an. Tabelle 1

[2] = Alimentary atherogenic dyslipoproteinaemia (hypercholesterolaemic diet, 24 days) in rats, serum lipids; format: in vivo, Ratten; conditions: 100 µg/kg i.p. daily
Text: Der Versuch wurde an 40 weißen Ratten-Männchen der Wistar-Linie mit einem Körpergewicht von 230 - 250 g durchgeführt. Die Tiere wurden in 4 Gruppen aufgeteilt. Gruppe 1: Referenzgruppe (Intakt), Gruppen 2 bis 4: Versuchsgruppen.
Die Versuchstiere wurden auf hypercholesterinämische (HCÄ) Diät gesetzt, um eine alimentäre atherogene Dyslipoproteinämie (DLP) zu modellieren. Die HCÄ- Diät umfasste mind. 7,5 % Cholesterin (CS), 45 % Fette und einen Überschuss an Vitamin D2 (500 000 IE). Gleichzeitig mit der Entwicklung von DLP erhielt die 3. Gruppe von Tieren Lys-Glu-Trp in einer Dosis von 100 µg/kg intraperitoneal täglich. Die 4. Gruppe von Tieren erhielt Lipanthyl 25 mg/kg intraperitoneal Lipanthyl 200M der Fa. Lab.Fournier S.A. (Frankreich) oder Fenofibrate, die zur Behandlung von Hyperlipoproteinämie verwendet werden, die sich mit keiner Diät mehr behandeln lässt. Der Versuch dauerte 24 Tage. […] Sie waren wohlgenährt und hatten glattes glänzendes Fell. Die Tiere aus der 2. Gruppe hatten zerzaustes Fell und zeigten Übererregbarkeit, was durch einen Überschuss an Vitamin D2 erklärt werden kann.
Nach dem Versuchsende wurde eine Dekapitation der Tiere vorgenommen. Danach wurden der Gesamt-Cholesterinspiegel (CS), Triglyzeridspiegel (TG), Cholesteringehalt der Lipoproteine hoher Dichte (CS HDL) im Blutserum der Tiere beurteilt und die Cholesterin-Konzentration der Lipoproteine niedriger Dichte (CS LDL) sowie der Cholesterin-HDL Quotient (LDL/HDL-Verhältnis) berechnet. Die genannten Kennziffern sind der Tabelle 2 zu entnehmen. Tabelle 2
Bei der Beurteilung wurden der Zustand und das Gewicht von Leber, Milz und Nebennieren berücksichtigt.

[3] = Alloxan diabetes in rats, blood glucose and response to insulin; format: in vivo, Ratten
Experimental: Bekanntlich ist Alloxan-Diabetes durch Schädigung der ß-Zellen von Pankreas gekennzeichnet und wird von ausgeprägter Hyperglykämie infolge eines Insulinmangels und einer Aktivierung von Glukoneogenese begleitet.
Der Versuch wurde an 18 weißen Outbred-Ratten-Männchen mit einem durchschnittlichen Körpergewicht von 349 ± 19 g durchgeführt. Nach der Ermittlung von Glukosekonzentration im Blut wurden alle Tiere in 2 Gruppen aufgeteilt. Danach erhielten alle Tiere einmalig intravenös je 1 ml Alloxanlösung ("Spofa") in einer Dosis von 35 mg/kg. 15 Tage danach wurde den Tieren aus der Referenzgruppe je 0,3 ml der 0,9 %igen NaCl-Lösung einmal täglich intraperitoneal verabreicht. Die Ratten aus der Hauptgruppe wurden mit Tripeptid Lys-Glu-Trp-NH2 in einer Dosis von 3 µg (in 0,3 ml der 0,9 %igen NaCl-Lösung) pro Ratte innerhalb von 11 Tagen behandelt. Eine separate Gruppe bestand aus 7 gesunden Ratten mit einem ähnlichen Körpergewicht.
Danach wurde allen Tieren Insulin (0,3 ME) intravenös verabreicht und die Glukosekonzentration im Blut gemessen.

[4] = format: in vivo; conditions: 500 µg oral twice daily for 30 days
Text: Die Untersuchung bezog sich auf Patienten mit einer verifizierten Diagnose eines metabolischen Syndroms. Die Diagnose wurde bei Erfüllung folgender Kriterien gestellt: arterielle Hypertension, gestörte Glukosetoleranz, Fettsucht, Dyslipidämie. Es wurden insgesamt 85 Patienten mit metabolischem Syndrom (50 Frauen, 35 Männer) untersucht. Das durchschnittliche Alter betrug bei den Männern 54,6 ± 12 Jahre, bei den Frauen 55,6 ± 13,0 Jahre.
Kriterien für die Einbeziehung der Patienten in die Forschung: • 1. Alter: Älter als 45 Jahre für Männer und Frauen. • 2. Vorhandensein von klinischen Merkmalen eines metabolischen Syndroms. • 3. Vorhandensein von verifizierter Pathologie des Magen-Darm-Kanals (Verstopfungen, Reizdarmsyndrom, Cholezystitis, Pankreatitis, Fettleber). • 4. Zustimmung des Patienten.
Die Kriterien für den Ausschluss der Kranken aus der Untersuchung waren das Vorhandensein von familiärer Dyslipidämie, akuter Pathologie des Magen-Darm-Kanals, Merkmalen der Helmintheninvasion und onkologischer und systematischer Pathologie.
Die Kombination der angewandten pathogenetischen Therapie unter Einsatz solcher Mittel wie ACE-Hemmer, Ca2^+-Kanal-Blocker, harntreibende Mittel, β-Blocker und deren Dosierung wurde aufgrund klinischer Indikationen festgelegt. Bei der Untersuchung wurden auch die mit Nitropräparaten sowie mit Statinen behandelten Kranken ausgeschlossen. Alle Kranken wurden einer hypocholesterinämisierenden Diät unterzogen, die eine Einnahme von Kleie einschließt.
Tripeptid Lys-Glu-Trp-NH2 wurde 47 Patienten oral in einer Dosis von 500 µg pro Gabe zweimal täglich im Laufe von 30 Tagen verabreicht. Die Unterbrechung zwischen den Behandlungen betrug 2 Monate.
Die Kranken wurden im Laufe von 12 Monaten beobachtet. Die Untersuchung umfasste 3 Phasen: Ursprungsphase (zum Zeitpunkt der Diagnoseüberprüfung), 6 Monate und ein Jahr später.
Folgende Parameter wurden bei allen Kranken analysiert: Geschlecht, Alter zum Zeitpunkt der Untersuchung, Krankheitsdauer, Dauer der arteriellen Hypertension, Fettsucht, Dyslipidämie. Die Untersuchung der Kranken umfasste eine Einschätzung der Risikofaktoren, wie z. B. Vererbung, Fettsucht, Zuckerkrankheit, koronare Herzkrankheit. Dabei wurde eine Sozialanamnese, d. h. Besonderheiten des Lebensstils, Ernährungsgewohnheiten, analysiert. Es wurden auch anthropometrische Messungen durchgeführt: Wuchs, Körpergewicht, Body-Maß- Index. Alle Kranken wurden einer planmäßigen Laboruntersuchung unterzogen und zwar: klinische Blutanalyse und Untersuchung von biochemischen Blutkennwerten. Es wurden Hämoglobingehalt, Erythrozytenmenge, Leukozyten-gehalt, Lymphozytengehalt ermittelt. Unter den biochemischen Serumkennwerten wurden Gesamteiweißgehalt, Albumine, Triglyzeridspiegel, Cholesterinspiegel, LDL, HDL, LDL/HDL-Verhältnis ermittelt. Die durchgeführten Instrumentenunter-suchungen umfassten Zuckerbelastungstest, Abdomen-Sonographie, Stuhluntersuchungen, Schilddrüsenfunktionsprüfung (Hormonstatus).

[5] = 20 µg/kg daily into the stomach for 5 days
[6] = 200 µg/kg daily into the stomach for 5 days
[7] = 3 µg per rat i.p. for 11 days, 30 min after insulin 0,3 ME i.v.

Question: What does the source list for CC(C)(Oc1ccc(CCNC(=O)c2ccc(Cl)cc2)cc1)C(=O)O [Bezafibrat, 2-(b-parachlorobenzoyl-aminoethyl)phenoxy-2-methylpropinsäure]?
Answer: Gesamtcholesterin ([1]; 50,0 mg/kg (comparator)): 1,34±0,03 mMol/l; HDL- Cholesterin ([1]; 50,0 mg/kg (comparator)): 0,98±0,05 mMol/l; Triglyzeridspiegel ([1]; 50,0 mg/kg (comparator)): 0,55±0,06 mMol/l

Question: For NCCCC[C@H](N)C(=O)N[C@@H](CCC(=O)O)C(=O)N[C@@H](Cc1c[nH]c2ccccc12)C(=O)O [Lys-Glu-Trp, L-Lysyl -L-Glutamyl-L-Tryptophan] (H-Lys-Glu-Trp-OH), which “HDL- Cholesterin” value [1, 5] is on record?
Answer: 0,97±0,04 mMol/l

Question: What about the Triglyzeridspiegel [1, 5] of the same compound?
Answer: 0,58±0,05 mMol/l

Question: What about the Gesamtcholesterin [1, 6] of the same compound?
Answer: 2,10±0,17 mMol/l

Question: What about the “HDL- Cholesterin” value [1, 6] of the same compound?
Answer: 0,60±0,02 mMol/l

Question: And the Triglyzeridspiegel [1, 6]?
Answer: 0,67±0,05 mMol/l

Question: What about the “Wirkung auf das relative Gewicht von Leber, Milz und Nebennieren” value ([2]; HCÄ diet 24 days) of the same compound?
Answer: keine ungünstige Wirkung

Question: What about the Triglyzeridspiegel ([2]; HCÄ diet 24 days, blood serum) of the same compound?
Answer: 0,96±0,16 mMol/l

Question: And the “Aussehen der Tiere” value ([2]; during the 24-day experiment)?
Answer: normgerechtes Aussehen

Question: What about the “CS LDL” value ([2]; calculated, HCÄ diet 24 days) of the same compound?
Answer: 0,71±0,24 mMol/l

Question: What about the LDL/HDL-Verhältnis ([2]; calculated, HCÄ diet 24 days) of the same compound?
Answer: 2,21±0,58* *

Question: And the CS ([2]; total cholesterol, HCÄ diet 24 days, blood serum)?
Answer: 1,70±0,27* * mMol/l

Question: Which “Nebenwirkungen, Komplikationen, Arzneiabhängigkeit” value ([3]; 3 µg per rat i.p. for 11 days) does the source give for NCCCC[C@H](N)C(=O)N[C@@H](CCC(=O)O)C(=O)N[C@@H](Cc1c[nH]c2ccccc12)C(N)=O [Lys-Glu-Trp-NH2] (H-Lys-Glu-Trp-NH2) here?
Answer: keine Nebenwirkungen, Komplikationen und keine Arzneiabhängigkeit

Question: What about the “Glukosekonzentration im Blut (mg %) Ausgangsspiegel” value ([3]; 3 µg per rat i.p. for 11 days, starting 15 days after alloxan 35 mg/kg i.v., before insulin) of the same compound?
Answer: 221,5±11,2 mg %

Question: And the “Glukosekonzentration im Blut (mg %) 30 Minuten nach Insulineinführung” value [3, 7]?
Answer: 123,6±8,3 mg %

Question: What about the “Senkung von Glukosespiegel im Vergleich zum Ausgangsspiegel (%)” value [3, 7] of the same compound?
Answer: 44,2%

Question: What about the “Senkung des Glukosespiegels im Blut” value ([3]; day 28 of the study, on average, 3 µg per rat i.p. for 11 days) of the same compound?
Answer: 34,8%

Question: And the Letalität ([3]; main group, 3 µg per rat i.p. for 11 days)?
Answer: Senkung der Letalität

Question: And the “Glukosespiegelsenkung nach der Insulineinführung gegenüber der Vergleichsgruppe” value ([3]; versus alloxan diabetes + NaCl group)?
Answer: fast zweimal größere Glukosespiegelsenkung

Question: And the Gesamtcholesterin [1, 5]?
Answer: 1,69±0,15 mMol/l

Question: And the “HDL- Cholesterin” value [1, 5]?
Answer: 1,05±0,02 mMol/l

Question: What about the Triglyzeridspiegel [1, 5] of the same compound?
Answer: 0,76±0,14 mMol/l

Question: And the Gesamtcholesterin [1, 6]?
Answer: 1,22±0,15 mMol/l

Question: And the “HDL- Cholesterin” value [1, 6]?
Answer: 1,09±0,02 mMol/l

Question: What about the Triglyzeridspiegel [1, 6] of the same compound?
Answer: 0,88±0,12 mMol/l

Question: And the Cholesterin-Konzentration ([4]; 2 months between courses, 12 months observation, with basic therapy, Fig. 1)?
Answer: zur Cholesterin-Konzentrationssenkung beitrug

Question: And the “Konzentration der Lipoproteine mit hoher Dichte” value ([4]; in complex therapy)?
Answer: Konzentrationssteigerung der Lipoproteine mit hoher Dichte

Question: And the “drucksenkender Effekt” value ([4]; in complex therapy)?
Answer: schnelleren und stabileren drucksenkenden Effekt

Question: What about the LDL/HDL-Verhältnis ([4]; with basic therapy, Fig. 3) of the same compound?
Answer: ausgeprägte Verminderung des LDL/HDL-Verhältnisses

Question: What about the “Konzentration der Triglyzeride” value ([4]; 3rd examination after one year, Fig. 2) of the same compound?
Answer: maximale Konzentrationssenkung der Triglyzeride
